Data taken from ChEMBL document CHEMBL1123821, “Synthesis of 5-chloro-5,8-dideaza analogues of folic acid and aminopterin targeted for colon adenocarcinoma” (J Med Chem, 1987).

Assays:
Assay type in all cases: functional, cell-based
HuTu80 = assay: Inhibition of cell growth against HuTu 80 human gastrointestinal adenocarcinoma cell lines in vitro
SW480 = assay: Inhibition of cell growth against SW480 human gastrointestinal adenocarcinoma cell lines in vitro
HT-29 = assay: Inhibition of cell growth against HT-29 human gastrointestinal adenocarcinoma cell lines in vitro
WiDr = assay: Inhibition of cell growth against WIDR human gastrointestinal adenocarcinoma cell lines in vitro

Compound | IC50 (HuTu80) | IC50 (SW480) | IC50 (HT-29) | IC50 (WiDr)
Cc1c(NCc2ccc(C(=O)NC(CCC(=O)O)C(=O)O)cc2)ccc2nc(N)nc(O)c12 (stereo unspecified) | 4 µM |  |  | 
Cc1c(CNc2ccc(C(=O)NC(CCC(=O)O)C(=O)O)cc2)ccc2nc(N)nc(N)c12 (stereo unspecified) | 0.0034 µM | 0.005 µM | 0.003 µM | 0.005 µM
Nc1nc(=O)c2cc(NCc3ccc(C(=O)NC(CCC(=O)O)C(=O)O)cc3)ccc2[nH]1 (stereo unspecified) | 4.5 µM | 4.5 µM | 1.7 µM | 4.2 µM
Cc1c(NCc2ccc(C(=O)NC(CCC(=O)O)C(=O)O)cc2)ccc2nc(N)nc(N)c12 (stereo unspecified) | 0.047 µM | 0.056 µM | 0.06 µM | 0.071 µM
Nc1nc(N)c2c(Cl)c(CNc3ccc(C(=O)NC(CCC(=O)O)C(=O)O)cc3)ccc2n1 (stereo unspecified) | 0.0019 µM | 0.002 µM | 0.0023 µM | 0.0021 µM
Nc1nc(N)c2c(Cl)c(NCc3ccc(C(=O)NC(CCC(=O)O)C(=O)O)cc3)ccc2n1 (stereo unspecified) | 0.022 µM | 0.02 µM | 0.025 µM | 0.024 µM
Nc1nc(O)c2c(Cl)c(NCc3ccc(C(=O)NC(CCC(=O)O)C(=O)O)cc3)ccc2n1 (stereo unspecified) | 8.5 µM | 38 µM | 6.7 µM | 11 µM
CN(Cc1cnc2nc(N)nc(N)c2n1)c1ccc(C(=O)N[C@@H](CCC(=O)O)C(=O)O)cc1 [METHOTREXATE] | 0.009 µM |  |  | 
